Experimental findings from patent US20250129135A1, “Multi-Agonist and Use Thereof” (priority 2021, published 2025) are described below.

One data set deals with 3T3-L1 adipocytes. Conditions: for Rel. A (Relative Activity) on 3T3-L1 adipocyte: relative to GIP. In outline:
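Mouse 3T3-L1 preadipocytes were differentiated with IBMX, dexamethasone and insulin for 5 days, then insulin plus 10 uM rosiglitazone for 3 days, then 10% FBS medium for 2–3 days. Mature adipocytes received 10-point, 3-fold compound dilutions for 60 min at room temperature. cAMP was read by kit detection reagent after a further 60 min, with concentration-effect curves fitted.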

The nature of data set [1]: Rat pharmacokinetics (PK) study. The data set is classed as in vivo. Conditions: sc, male SD rats, subcutaneous 30 nmol/kg, plasma. The method, then: 7˜9 weeks old male SD rats (220-250 g, 3 rats/group) were subjected to subcutaneous injection of 30 nmol/kg compound. After administration, blood was collected through the jugular vein at time points 0.25, 2, 4, 8, 12, 16, 24, 48, 96, 120, and 144 hours. The blood was processed to obtain plasma samples and analyzed using LC-MS/MS. The blood concentration time curve was analyzed using Phoenix WinNonlin version 6.3 software (non compartment model), and PK parameters and half-life were calculated.

The test system of another data set is C57 BL/6J DIO mice. Put plainly: In vivo pharmacodynamics in high-fat diet induced obesity (DIO) mice. Conditions: Mean±SEM; for LDL-C / TC (total cholesterol) / TG (plasma triglycerides) / Blood sugar (fasting blood glucose) / Insulin (blood): Day 15. On the set-up: species or system mouse. In outline: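 DIO mice (60 kcal% fat diet) dosed subcutaneously in 1×PBS, 5 ml/kg, every three days for 15 days. Daily body weight and food intake as % change from baseline; day 15 fasting glucose, plasma TC, LDL-C, TG, insulin and liver TG. Mean±SEM, one-way ANOVA with Dunnett's versus vehicle.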

Another data set has as its target Human GLP-1R (Homo sapiens, UniProt P43220). As to the kind of experiment: cAMP (HTRF) activity in HEK-293 cells stably overexpressing human GLP-1 receptor. The data set is classed as cell-based. More on the design: expressed in transfected cells; host or cells: HEK-293. Conditions: for Human GLP-1R Rel. A (Relative Activity): EC50 of human GLP-1 (7-37) / EC50 of compound; for EC50: stable transfected cell cAMP activity, at least 3 independent tests. In outline:
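Cells resuspended in HBSS are incubated with compound for 60 min at room temperature, then with HTRF cAMP detection reagent for a further 60 min. Concentration-response fits give agonist EC50 values in nM.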
For orientation: TR-FRET usually uses a lanthanide donor and a delayed reading to cut background.

Data set [2] has as its system human primary liver cells. The data set is classed as cell-based. Conditions: for Rel. A (Relative Activity) on human primary liver cells: relative to GCG. The gist of the method:
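Human primary hepatocytes, thawed at 37° C and resuspended in HBSS, exposed to compound for 60 min at room temperature. Detection reagent then added for 60 min before cAMP readout.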

Structures are written as SMILES. Starred links: 1 amine or outer side, 2 acyl side, 3 side chain; linkers in the order of their positions; H or OH if unused. Non-standard residues stand in square brackets, D forms with d. Residues, ends and D or L forms follow the SMILES beside them. Groups on a side chain read outwards from the residue. *: point of attachment. C20 diacid = O=C(O)CCCCCCCCCCCCCCCCCCC(=O)*; αMePhe(2-F) = C[C@](N)(Cc1ccccc1F)C(=O)O; γGlu = O=C(O)[C@H](CCC(=O)[*:2])N[*:1]; αMeL = CC(C)C[C@](C)(N)C(=O)O; AEEA = NCCOCCOCC(=O)O; Aib = CC(C)(N)C(=O)O

Sequence of Human GLP-1R (P43220 24-463): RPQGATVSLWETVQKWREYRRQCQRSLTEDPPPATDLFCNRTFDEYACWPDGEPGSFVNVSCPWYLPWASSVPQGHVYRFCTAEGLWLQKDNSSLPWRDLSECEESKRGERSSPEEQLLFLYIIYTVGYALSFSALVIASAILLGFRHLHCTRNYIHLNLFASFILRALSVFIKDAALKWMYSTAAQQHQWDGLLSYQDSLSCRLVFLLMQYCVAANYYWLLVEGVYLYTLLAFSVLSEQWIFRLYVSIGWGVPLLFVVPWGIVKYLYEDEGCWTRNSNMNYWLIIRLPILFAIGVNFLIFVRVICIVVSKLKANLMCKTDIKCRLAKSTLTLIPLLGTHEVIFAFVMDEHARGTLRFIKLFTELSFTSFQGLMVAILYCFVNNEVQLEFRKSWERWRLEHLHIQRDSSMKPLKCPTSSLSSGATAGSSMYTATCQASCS

For orientation: EC50 means the midpoint of the concentration-response curve. The AUC(0-t) is the area under the concentration-time curve up to a stated or last time point. A word on the Cmax: it is the maximum level reached in the sampled fluid or tissue. What is called Tmax is the time from dosing to the highest level. Broadly, the half-life is how long it takes for the measured level to halve. High values mean slow loss, low ones fast loss. In the case of `CC[C@H](C)[C@H](NC(=O)[C@H](Cc1ccccc1)NC(=O)[C@H](C)NC(=O)C(C)(C)NC(=O)[C@H](CCC(N)=O)NC(=O)[C@H](C)NC(=O)[C@H](CCCCNC(=O)COCCOCCNC(=O)COCCOCCNC(=O)CC[C@H](NC(=O)CCCCCCCCCCCCCCCCCCC(=O)O)C(=O)O)NC(=O)[C@H](CCCCN)NC(=O)[C@H](CC(=O)O)NC(=O)[C@H](CC(C)C)NC(=O)[C@](C)(CC(C)C)NC(=O)[C@@H](NC(=O)[C@H](CO)NC(=O)[C@H](Cc1ccc(O)cc1)NC(=O)[C@H](CC(=O)O)NC(=O)[C@H](CO)NC(=O)[C@@H](NC(=O)[C@](C)(Cc1ccccc1F)NC(=O)[C@@H](NC(=O)CNC(=O)[C@H](CCC(N)=O)NC(=O)C(C)(C)NC(=O)[C@@H](N)Cc1ccc(O)cc1)[C@@H](C)O)[C@@H](C)O)[C@@H](C)CC)C(=O)N[C@@H](CCC(=O)O)C(=O)N[C@@H](Cc1ccccc1)C(=O)N[C@@H](CC(C)C)C(=O)N[C@@H](CC(C)C)C(=O)N[C@@H](CCC(=O)O)C(=O)N[C@H](C(=O)NCC(=O)N1CCC[C@H]1C(=O)N[C@@H](CO)C(=O)N[C@@H](CO)C(=O)NC(C)(C)C(=O)N[C@@H](Cc1c[nH]cn1)C(=O)N1CCC[C@H]1C(=O)N1CCC[C@H]1C(=O)N1CCC[C@H]1C(=O)N[C@@H](CO)C(N)=O)[C@@H](C)O` [Compound 38] (H-Y[Aib]QGT[αMePhe(2-F)]TSDYSI[αMeL]LDKK([AEEA-AEEA-γGlu-C20 diacid])AQ[Aib]AFIEFLLETGPSS[Aib]HPPPS-NH2; N-terminus assumed), in the data set with 3T3-L1 adipocytes, the response was half-maximal at 3.24 nM (EC50) and the “Rel. A (Relative Activity) on 3T3-L1 adipocyte” value was determined as 117.42%. Further, in data set [1], the AUC(0-t) was determined as 3.1 µM·h, the Cmax was found to be 78.1 nM, the Tmax is 16 h and the half-life was 15.7 h. In the data set on C57 BL/6J DIO mice (Table 6-2, 3 nmol/kg s.c. Q3D for 15 days), the Weight change is on record as −19.0 ± 1.30%. Further, the Weight change in the data set with C57 BL/6J DIO mice (Table 6-2, 10 nmol/kg s.c. Q3D for 15 days) is listed as −25.7 ± 2.26%. For the same compound, in the data set on C57 BL/6J DIO mice (Table 7-2, 3 nmol/kg), the LDL-C worked out at 0.39 ± 0.025 mM, the “TC (total cholesterol)” value turned out to be 3.49 ± 0.151 mM and the “TG (plasma triglycerides)” value was 0.74 ± 0.019 mM. Besides, in the data set on C57 BL/6J DIO mice (Table 7-2, 10 nmol/kg), the LDL-C was 0.35 ± 0.053 mM, the “TC (total cholesterol)” value came out at 3.12 ± 0.186 mM and the “TG (plasma triglycerides)” value is given as 0.63 ± 0.051 mM. Besides, in the data set with C57 BL/6J DIO mice (Table 8-2, 3 nmol/kg), the “Blood sugar (fasting blood glucose)” value was determined as 151.7 ± 8.46 mg/dL and the “Insulin (blood)” value was found to be 24.9 ± 5.43 mIU/L. Further, at Human GLP-1R, the “Human GLP-1R Rel. A (Relative Activity)” value stood at 115.79% and the EC50 stood at 0.038 nM. Besides, in data set [2], the response was half-maximal at 0.899 nM (EC50) and the “Rel. A (Relative Activity) on human primary liver cells” value is listed as 432.81%.
On to `CC[C@H](C)[C@H](NC(=O)[C@H](Cc1ccccc1)NC(=O)[C@H](C)NC(=O)C(C)(C)NC(=O)[C@H](CCC(N)=O)NC(=O)[C@H](C)NC(=O)[C@H](CCCCNC(=O)COCCOCCNC(=O)COCCOCCNC(=O)CC[C@H](NC(=O)CCCCCCCCCCCCCCCCCCC(=O)O)C(=O)O)NC(=O)[C@H](CCCCN)NC(=O)[C@H](CC(=O)O)NC(=O)[C@H](CC(C)C)NC(=O)[C@H](Cc1ccccc1)NC(=O)[C@@H](NC(=O)[C@H](CO)NC(=O)[C@H](Cc1ccc(O)cc1)NC(=O)[C@H](CC(=O)O)NC(=O)[C@H](CO)NC(=O)[C@@H](NC(=O)[C@](C)(Cc1ccccc1F)NC(=O)[C@@H](NC(=O)CNC(=O)[C@H](CCC(N)=O)NC(=O)C(C)(C)NC(=O)[C@@H](N)Cc1ccc(O)cc1)[C@@H](C)O)[C@@H](C)O)[C@@H](C)CC)C(=O)N[C@@H](CCC(=O)O)C(=O)N[C@@H](Cc1ccc(O)cc1)C(=O)N[C@@H](CC(C)C)C(=O)N[C@@H](CC(C)C)C(=O)N[C@@H](CCC(=O)O)C(=O)NC(C)(C)C(=O)N[C@@H](Cc1c[nH]cn1)C(=O)N1CCC[C@H]1C(=O)N[C@@H](CO)C(=O)N[C@@H](CO)C(=O)NCC(=O)N[C@@H](C)C(=O)N1CCC[C@H]1C(=O)N1CCC[C@H]1C(=O)N1CCC[C@H]1C(=O)N[C@@H](CO)C(N)=O` [Compound 18], for which, in the data set with 3T3-L1 adipocytes, the 50% effective concentration (EC50) amounted to 1.99 nM and the “Rel. A (Relative Activity) on 3T3-L1 adipocyte” value is on record as 191.34%. Moreover, in data set [1], the AUC(0-t) is 3.01 µM·h, the Cmax worked out at 62.8 nM, the Tmax was 16 h and the half-life is 15.6 h. Also, the Weight change in the data set on C57 BL/6J DIO mice (Table 6-1, 3 nmol/kg s.c. Q3D for 15 days) is given as −22.2 ± 0.89%. For the same compound, in the data set with C57 BL/6J DIO mice (Table 6-1, 10 nmol/kg s.c. Q3D for 15 days), the Weight change is −30.6 ± 1.26%. Also, the Weight change with C57 BL/6J DIO mice (Table 6-1, 30 nmol/kg s.c. Q3D for 15 days) is listed as −45.0 ± 1.52%. Also, in the data set on C57 BL/6J DIO mice (Table 7-1, 3 nmol/kg), the LDL-C is reported as 0.60 ± 0.043 mM, the “TC (total cholesterol)” value is 3.77 ± 0.234 mM and the “TG (plasma triglycerides)” value was 0.90 ± 0.027 mM. Further, in the data set on C57 BL/6J DIO mice (Table 7-1, 30 nmol/kg), the LDL-C was determined as 0.35 ± 0.036 mM, the “TC (total cholesterol)” value came out at 2.32 ± 0.161 mM and the “TG (plasma triglycerides)” value is listed as 0.61 ± 0.041 mM. Also, in the data set with C57 BL/6J DIO mice (Table 8-1, 3 nmol/kg), the “Blood sugar (fasting blood glucose)” value is on record as 98.5 ± 9.17 mg/dL and the “Insulin (blood)” value turned out to be 21.2 ± 3.73 mIU/L. In addition, on Human GLP-1R, the “Human GLP-1R Rel. A (Relative Activity)” value is 366.67% and it took 0.012 nM to reach a half-maximal effect (EC50). In data set [2], the EC50 worked out at 0.622 nM and the “Rel. A (Relative Activity) on human primary liver cells” value was 625.56%.
